Results: patent US9663460B2, “Sulfur derivatives as chemokine receptor modulators” (ALLERGAN, INC., priority 2010, dated 2017)
Blank lines part the entries; values can stand above or below the molecule they belong to.

Molecular target: CCR2 (Homo sapiens (Human), UniProt P41597)
Assay: Calcium activity assayed on the FLIPR Tetra in HEK-Gqi5 cells stably expressing CCR2
Type: cell-based
Conditions: FLIPR Tetra calcium assay

Chain of CCR2 (P41597 whole entry, species assumed): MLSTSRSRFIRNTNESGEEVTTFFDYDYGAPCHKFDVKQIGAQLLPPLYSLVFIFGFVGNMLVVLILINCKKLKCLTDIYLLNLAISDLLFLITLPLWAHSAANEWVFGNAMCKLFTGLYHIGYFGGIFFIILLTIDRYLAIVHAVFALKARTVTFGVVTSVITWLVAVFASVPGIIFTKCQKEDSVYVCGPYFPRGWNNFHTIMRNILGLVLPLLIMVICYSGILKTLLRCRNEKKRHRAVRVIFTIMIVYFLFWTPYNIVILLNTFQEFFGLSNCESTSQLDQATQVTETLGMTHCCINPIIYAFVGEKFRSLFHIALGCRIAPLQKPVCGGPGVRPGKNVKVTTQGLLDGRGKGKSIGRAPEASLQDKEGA

CCR2 % ANTAGONISM: 108% | IC50: 51 nM
Structure (SMILES): O=S(=O)(Cc1c[nH]cn1)c1ccc(Cl)cc1NS(=O)(=O)c1ccc(Cl)c(C(F)(F)F)c1 [4-chloro-N-{5-chloro-2-[(1H-imidazol-4-ylmethyl)sulfonyl]phenyl}-3-(trifluoromethyl)benzenesulfonamide]

CCR2 % ANTAGONISM: 84% | IC50: 403 nM
Structure (SMILES): CS(=O)(=O)c1ccc(Cl)cc1NS(=O)(=O)c1ccc(Br)cc1 [4-bromo-N-[5-chloro-2-(methylsulfonyl)phenyl]benzenesulfonamide]

CCR2 % ANTAGONISM: 97% | IC50: 213 nM
Structure (SMILES): CS(=O)(=O)c1ccc(Cl)cc1NS(=O)(=O)c1ccc(C(F)(F)F)c([N+](=O)[O-])c1 [N-[5-chloro-2-(methylsulfonyl)phenyl]-3-nitro-4-(trifluoromethyl)benzenesulfonamide]

CCR2 % ANTAGONISM: 90% | IC50: 491 nM
Structure (SMILES): CSc1ccc(Cl)cc1NS(=O)(=O)c1ccc(C(F)(F)F)c([N+](=O)[O-])c1 [N-[5-chloro-2-(methylthio)phenyl]-3-nitro-4-(trifluoromethyl)benzenesulfonamide]

CCR2 % ANTAGONISM: 79% | IC50: 141 nM
Structure (SMILES): CCOC(=O)C[S+]([O-])c1ccc(Cl)cc1NS(=O)(=O)c1ccc(Cl)c(C(F)(F)F)c1 (centres unmarked) [ethyl {[4-chloro-2-({[4-chloro-3-(trifluoromethyl)phenyl]sulfonyl}amino)phenyl]sulfinyl}acetate]

CCR2 % ANTAGONISM: 84% | IC50: 190 nM
Structure (SMILES): O=S(=O)(Nc1cc(Cl)ccc1SCc1ncc[nH]1)c1ccc(Cl)c(C(F)(F)F)c1 [4-chloro-N-{5-chloro-2-[(1H-imidazol-2-ylmethyl)thio]phenyl}-3-(trifluoromethyl)benzenesulfonamide]

CCR2 % ANTAGONISM: 101% | IC50: 107 nM
Structure (SMILES): O=S(=O)(Nc1cc(Cl)ccc1[S+]([O-])C1CCC(O)C1)c1ccc(Cl)c(C(F)(F)F)c1 (centres unmarked) [4-chloro-N-{5-chloro-2-[(3-hydroxycyclopentyl)sulfinyl]phenyl}-3-(trifluoromethyl)benzenesulfonamide]

CCR2 % ANTAGONISM: 94% | IC50: 116 nM
Structure (SMILES): C[S+]([O-])c1ccc(Cl)cc1NS(=O)(=O)c1ccc(Br)cc1 (centres unmarked) [4-bromo-N-[5-chloro-2-(methylsulfinyl)phenyl]benzenesulfonamide]

CCR2 % ANTAGONISM: 98% | IC50: 236 nM
Structure (SMILES): C[S+]([O-])c1ccc(Cl)cc1NS(=O)(=O)c1ccc(F)cc1F (centres unmarked) [N-[5-chloro-2-(methylsulfinyl)phenyl]-2,4-difluorobenzenesulfonamide]

CCR2 % ANTAGONISM: 113% | IC50: 249 nM
Structure (SMILES): O=S(=O)(Cc1ncc[nH]1)c1ccc(Cl)cc1NS(=O)(=O)c1ccc(Cl)c(C(F)(F)F)c1 [4-chloro-N-{5-chloro-2-[(1H-imidazol-2-ylmethyl)sulfonyl]phenyl}-3-(trifluoromethyl)benzenesulfonamide]

CCR2 % ANTAGONISM: 94% | IC50: 1920 nM
Structure (SMILES): CSc1ccc(Cl)cc1NS(=O)(=O)c1cccc(Cl)c1F [3-chloro-N-[5-chloro-2-(methylthio)phenyl]-2-fluorobenzenesulfonamide]

CCR2 % ANTAGONISM: 92% | IC50: 680 nM
Structure (SMILES): CSc1ccc(Cl)cc1NS(=O)(=O)c1ccc(C)c([N+](=O)[O-])c1 [N-[5-chloro-2-(methylthio)phenyl]-4-methyl-3-nitrobenzenesulfonamide]

Further lines, the molecule ahead of its results:

Structure (SMILES): CN(C)CCCS(=O)(=O)c1ccc(Cl)cc1NS(=O)(=O)c1cc2ccccc2o1 [N-(5-chloro-2-{[3-(dimethylamino)propyl]sulfonyl}phenyl)-1-benzofuran-2-sulfonamide]
CCR2 % ANTAGONISM: 96%

Structure (SMILES): COc1ccc([S+]([O-])Cc2cccc(N)c2)c(NS(=O)(=O)c2cc3ccccc3o2)c1 (centres unmarked) [N-{2-[(3-aminobenzyl)sulfinyl]-5-methoxyphenyl}-1-benzofuran-2-sulfonamide]
CCR2 % ANTAGONISM: 100% | IC50: 85 nM

Structure (SMILES): Nc1cccc(C[S+]([O-])c2ccccc2NS(=O)(=O)c2cc3ccccc3o2)c1 (centres unmarked) [N-{2-[(3-aminobenzyl)sulfinyl]phenyl}-1-benzofuran-2-sulfonamide]
CCR2 % ANTAGONISM: 110% | IC50: 58 nM

Structure (SMILES): CC(C)c1ccc(S(=O)(=O)Nc2cc(Cl)ccc2S(C)(=O)=O)cc1 [N-[5-chloro-2-(methylsulfonyl)phenyl]-4-isopropylbenzenesulfonamide]
CCR2 % ANTAGONISM: 0%

Structure (SMILES): CN(C)C(=O)CC[S+]([O-])c1ccc(Cl)cc1NS(=O)(=O)c1ccc(F)cc1F (centres unmarked) [3-[(4-chloro-2-{[(2,4-difluorophenyl)sulfonyl]amino}phenyl)sulfinyl]-N,N-dimethylpropanamide]
CCR2 % ANTAGONISM: 93% | IC50: 1480 nM

Structure (SMILES): O=S(=O)(Nc1cc(Cl)ccc1[S+]([O-])Cc1cc[nH]n1)c1cc2ccccc2o1 (centres unmarked) [N-{5-chloro-2-[(1H-pyrazol-3-ylmethyl)sulfinyl]phenyl}-1-benzofuran-2-sulfonamide]
CCR2 % ANTAGONISM: 99% | IC50: 634 nM

Structure (SMILES): Nc1cccc(C[S+]([O-])c2ccc(F)cc2NS(=O)(=O)c2cc3ccccc3o2)c1 (centres unmarked) [N-{2-[(3-aminobenzyl)sulfinyl]-5-fluorophenyl}-1-benzofuran-2-sulfonamide]
CCR2 % ANTAGONISM: 91% | IC50: 38 nM

Structure (SMILES): O=S(=O)(Nc1cc(Cl)ccc1SCCc1cn[nH]c1)c1cc2ccccc2o1 [N-(5-chloro-2-{[2-(1H-pyrazol-4-yl)ethyl]thio}phenyl)-1-benzofuran-2-sulfonamide]
CCR2 % ANTAGONISM: 91% | IC50: 412 nM

Structure (SMILES): O=S(=O)(CCc1cn[nH]c1)c1ccc(Cl)cc1NS(=O)(=O)c1cc2ccccc2o1 [N-(5-chloro-2-{[2-(1H-pyrazol-4-yl)ethyl]sulfonyl}phenyl)-1-benzofuran-2-sulfonamide]
CCR2 % ANTAGONISM: 93% | IC50: 570 nM

Structure (SMILES): NCCC[S+]([O-])c1ccc(Cl)cc1NS(=O)(=O)c1cc2ccccc2o1 (centres unmarked) [N-{2-[(3-aminopropyl)sulfinyl]-5-chlorophenyl}-1-benzofuran-2-sulfonamide]
CCR2 % ANTAGONISM: 63%

Structure (SMILES): CCCn1cnc(CS(=O)(=O)c2ccc(Cl)cc2NS(=O)(=O)c2cc3ccccc3o2)c1 [N-(5-chloro-2-{[(1-propyl-1H-imidazol-4-yl)methyl]sulfonyl}phenyl)-1-benzofuran-2-sulfonamide]
CCR2 % ANTAGONISM: 98% | IC50: 804 nM

Structure (SMILES): Nc1cccc(CSc2ccc(Cl)cc2NS(=O)(=O)c2ccc(Cl)cc2F)c1 [N-{2-[(3-aminobenzyl)thio]-5-chlorophenyl}-4-chloro-2-fluorobenzenesulfonamide]
CCR2 % ANTAGONISM: 88% | IC50: 2820 nM

Structure (SMILES): Nc1cccc(CSc2ccc(Cl)cc2NS(=O)(=O)c2ccc(Cl)cc2)c1 [N-{2-[(3-aminobenzyl)thio]-5-chlorophenyl}-4-chlorobenzenesulfonamide]
CCR2 % ANTAGONISM: 95% | IC50: 3890 nM

Structure (SMILES): Nc1cccc(CSc2ccc(Cl)cc2NS(=O)(=O)c2ccc(F)cc2F)c1 [N-{2-[(3-aminobenzyl)thio]-5-chlorophenyl}-2,4-difluorobenzenesulfonamide]
CCR2 % ANTAGONISM: 64% | IC50: 3240 nM

Structure (SMILES): NC(=O)NCCS(=O)(=O)c1ccc(Cl)cc1NS(=O)(=O)c1cc2ccccc2o1 [N-[2-({2-[(aminocarbonyl)amino]ethyl}sulfonyl)-5-chlorophenyl]-1-benzofuran-2-sulfonamide]
CCR2 % ANTAGONISM: 68% | IC50: 2000 nM

Structure (SMILES): Nc1cccc(CS(=O)(=O)c2ccc(F)cc2NS(=O)(=O)c2cc3ccccc3o2)c1 [N-{2-[(3-aminobenzyl)sulfonyl]-5-fluorophenyl}-1-benzofuran-2-sulfonamide]
CCR2 % ANTAGONISM: 90% | IC50: 22 nM
